# Data: US20260232666A1, “COMPOSITIONS AND METHODS FOR INHIBITION OF RAS” (TheRas, Inc., priority 2023, published 2026)
# Tests used:
# Format in all cases: binding
# Settings in all cases: 15 minutes reaction time point
# [1] = molecular target: T1, GppNHp-loaded KRAS4b (amino acids 1-169) G12C/C118S protein (Homo sapiens, UniProt P01116, C118S/G12C); test: Covalent cysteine 12 modification by MALDI-TOF MS, GppNHp-loaded KRAS G12C
# T1 construct: KRAS4b (amino acids 1-169) G12C/C118S protein; made in house
# In short: (§1)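 Percent modification comes from MALDI-TOF peak heights: the compound-adduct peak divided by the sum of the remaining-protein and adduct peaks. Reactions contained 1 μM protein and compound at a 1:2.5 ratio, in pH 7.3 HEPES buffer with NaCl and MgCl2, held 15 min at room temperature.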
# [2] = molecular target: T2, GDP-loaded KRAS4b (amino acids 1-169) G12C/C118S protein (Homo sapiens, UniProt P01116, C118S/G12C); test: Covalent cysteine 12 modification by MALDI-TOF MS, GDP-loaded KRAS G12C
# T2 construct: KRAS4b (amino acids 1-169) G12C/C118S protein; made in house
# In short: as §1
# [3] = molecular target: T3, GTP-loaded KRAS4b (amino acids 1-169) G12C/C118S protein (Homo sapiens, UniProt P01116, C118S/G12C); test: Covalent cysteine 12 modification by MALDI-TOF MS, GTP-loaded KRAS G12C
# T3 construct: KRAS4b (amino acids 1-169) G12C/C118S protein; made in house
# In short: as §1
Compound,GppNHp-KRAS G12C percent of modification [1],GDP-KRAS G12C percent of modification [2],GTP-KRAS G12C percent of modification [3]
C=CC(=O)N1CC[C@@H](N(CC)c2nc(OC[C@@]34CCCN3C[C@H](F)C4)nc3cc(-c4ccc(F)c5sc(N)c(C#N)c45)c(C#N)cc23)[C@@H]1C [Compound 56],B (50≤percent of modification <70%),A (percent of modification ≥70%),C (10%≤percent of modification <50%)
C=CC(=O)N1CC[C@@H](N(CC)c2nc(OC[C@@]34CCCN3C[C@H](F)C4)nc3c(F)c(-c4ccc(F)c5sc(N)c(C#N)c45)ccc23)[C@@H]1C [Compound 57],B (50≤percent of modification <70%),A (percent of modification ≥70%),C (10%≤percent of modification <50%)
C=CC(=O)N1CC[C@@H](N(CC)c2nc(OC[C@@H]3C[C@@H](F)CN3C)nc3c(F)c(-c4ccc(F)c5sc(N)c(C#N)c45)c(Cl)cc23)[C@H]1C [Compound 60],B (50≤percent of modification <70%),C (10%≤percent of modification <50%),B (50≤percent of modification <70%)
"C=CC(=O)N1CC[C@@H](N(C)c2nc(OC[C@@H]3C[C@@H](OC)CN3C)nc3c(F)c(-c4ccc(F)c5sc(N)c(C#N)c45)c(Cl)cc23)[C@H]1C [Compound 63, 4-(4-(((2R,3R)-1-acryloyl-2-methylpyrrolidin-3-yl)(methyl)amino)-6-chloro-8-fluoro-2-(((2S,4R)-4-methoxy-1-methylpyrrolidin-2-yl)methoxy)quinazolin-7-yl)-2-amino-7-fluorobenzo[b]thiophene-3-carbonitrile]",B (50≤percent of modification <70%),A (percent of modification ≥70%),B (50≤percent of modification <70%)
C=CC(=O)N1CC[C@@H](N(CC)c2nc(OC[C@@H]3C[C@@H](OC)CN3C)nc3c(F)c(-c4ccc(F)c5sc(N)c(C#N)c45)c(Cl)cc23)[C@H]1C [Compound 73],B (50≤percent of modification <70%),B (50≤percent of modification <70%),C (10%≤percent of modification <50%)
C=CC(=O)N1CC[C@@H](N(CC)c2nc(OC[C@@H]3CC4(CC4)CN3C)nc3c(F)c(-c4ccc(F)c5sc(N)c(C#N)c45)c(Cl)cc23)[C@H]1C [Compound 75],A (percent of modification ≥70%),A (percent of modification ≥70%),A (percent of modification ≥70%)
C=CC(=O)N1CC[C@@H](N(CC)c2nc(OC[C@@]34CCCN3C[C@H](F)C4)nc3cc(-c4ccc(F)c5sc(N)c(C#N)c45)c(F)cc23)[C@H]1CC [Compound 76],A (percent of modification ≥70%),A (percent of modification ≥70%),B (50≤percent of modification <70%)
C=CC(=O)N1CC[C@@H](N(CC)c2nc(OC[C@@]34CCCN3C[C@H](F)C4)nc3c(F)c(-c4ccc(F)c5sc(N)c(C#N)c45)c(Cl)cc23)[C@@H]1C [Compound 77],A (percent of modification ≥70%),A (percent of modification ≥70%),A (percent of modification ≥70%)
"C=CC(=O)N1CC[C@@H](N(C)c2nc(OC[C@@]34CCCN3C[C@H](F)C4)nc3c(F)c(-c4nc(N)cc(C)c4C(F)(F)F)c(Cl)cc23)[C@H]1C [Compound 78, 1-[(2R,3R)-3-[[7-[6-amino-4-methyl-3-(trifluoromethyl)-2-pyridyl]-6-chloro-8-fluoro-2-[[(2R,8S)-2-fluoro-1,2,3,5,6,7-hexahydropyrrolizin-8-yl]methoxy]quinazolin-4-yl]-methyl-amino]-2-methyl-pyrrolidin-1-yl]prop-2-en-1-one]",A (percent of modification ≥70%),A (percent of modification ≥70%),A (percent of modification ≥70%)
C=CC(=O)N1CC[C@@H](N(CC)c2nc(OC[C@@]34CCCN3C[C@H](F)C4)nc3c(F)c(-c4ccc(F)c5sc(N)c(C#N)c45)c(C(F)(F)F)cc23)[C@@H]1C [Compound 86],A (percent of modification ≥70%),A (percent of modification ≥70%),B (50≤percent of modification <70%)
C=CC(=O)N1CC[C@@H](N(C)c2nc(OCC3(CN4CCOCC4)CC3)nc3c(F)c(-c4ccc(F)c5sc(N)c(C#N)c45)c(C(F)(F)F)cc23)[C@H]1C [Compound 87],C (10%≤percent of modification <50%),C (10%≤percent of modification <50%),C (10%≤percent of modification <50%)
C=CC(=O)N1CC[C@@H](N(C)c2nc(OC[C@@]34CCCN3C[C@H](F)C4)nc3c(F)c(-c4ccc(F)c5oc(N)c(C#N)c45)c(C(F)(F)F)cc23)[C@H]1C [Compound 90],B (50≤percent of modification <70%),B (50≤percent of modification <70%),C (10%≤percent of modification <50%)
C=CC(=O)N1CC[C@@H](N(C)c2nc(OC[C@@]34CCCN3C[C@H](F)C4)nc3c(F)c(-c4nc(N)cc(C)c4C(F)(F)F)c(C(F)(F)F)cc23)[C@@H]1C [Compound 91],A (percent of modification ≥70%),A (percent of modification ≥70%),C (10%≤percent of modification <50%)
C=CC(=O)N1CC[C@@H](N(C)c2nc(OC[C@@H]3CC4(CC4)CN3CC)nc3c(F)c(-c4ccc(F)c5sc(N)c(C#N)c45)c(Cl)cc23)[C@@H]1C [Compound 92],A (percent of modification ≥70%),A (percent of modification ≥70%),B (50≤percent of modification <70%)

# The next lines start with the values.
GppNHp-KRAS G12C percent of modification [1],GDP-KRAS G12C percent of modification [2],GTP-KRAS G12C percent of modification [3],Compound
A (percent of modification ≥70%),A (percent of modification ≥70%),A (percent of modification ≥70%),C=CC(=O)N1CC[C@@H](N(C)c2nc(OC[C@@H]3C[C@@H](F)CN3C)nc3c(F)c(-c4ccc(F)c5sc(N)c(C#N)c45)c(C(F)(F)F)cc23)[C@H]1C [Compound 55]
A (percent of modification ≥70%),A (percent of modification ≥70%),A (percent of modification ≥70%),C=CC(=O)N1CC[C@@H](N(CC)c2nc(OC[C@@H]3CCCN3C)nc3c(F)c(-c4ccc(F)c5sc(N)c(C#N)c45)c(Cl)cc23)[C@H]1C [Compound 58]
A (percent of modification ≥70%),A (percent of modification ≥70%),A (percent of modification ≥70%),C=CC(=O)N1CC[C@@H](N(C)c2nc(OC[C@@H]3CCCN3C)nc3c(F)c(-c4ccc(F)c5sc(N)c(C#N)c45)c(C(F)(F)F)cc23)[C@H]1C [Compound 67]
B (50≤percent of modification <70%),B (50≤percent of modification <70%),C (10%≤percent of modification <50%),C=CC(=O)N1CC[C@@H](N(C)c2nc(N3CC(N(C)C)C3)nc3c(F)c(-c4ccc(F)c5sc(N)c(C#N)c45)c(C(F)(F)F)cc23)[C@H]1C [Compound 80]
A (percent of modification ≥70%),B (50≤percent of modification <70%),C (10%≤percent of modification <50%),C=CC(=O)N1CC[C@@H](N(C)c2nc(OC[C@@H]3C[C@@H](F)CN3C)nc3c(F)c(-c4ccc(F)c5sc(N)c(C#N)c45)c(Cl)cc23)[C@@H]1C [Compound 82]
A (percent of modification ≥70%),A (percent of modification ≥70%),B (50≤percent of modification <70%),C=CC(=O)N1CC[C@@H](N(C)c2nc(OC[C@@H]3CCCN3C)nc3c(F)c(-c4ccc(F)c5sc(N)c(C#N)c45)c(Cl)cc23)[C@@H]1C [Compound 83]
A (percent of modification ≥70%),A (percent of modification ≥70%),B (50≤percent of modification <70%),C=CC(=O)N1CC[C@@H](N(C)c2nc(OC[C@@H]3CC4(CC4)CN3CC)nc3c(F)c(-c4ccc(F)c5sc(N)c(C#N)c45)c(C(F)(F)F)cc23)[C@@H]1C [Compound 95]
